Data from ChEMBL document CHEMBL3132769, “Fragment growing to retain or alter the selectivity of anchored kinase hinge-binding fragments” (Medchemcomm, 2014).

Experiments:
[1] = molecular target: Fibroblast growth factor receptor 1 (Homo sapiens) (UniProt P11362); assay: Inhibition of human FGFR1 catalytic domain expressed in baculovirus assessed as substrate phosphorylation using fluorescence-labelled peptides as substrate at 0.06 uM after 90 mins by microfluidic peptide phosphorylation assay
[2] = molecular target: Platelet-derived growth factor receptor alpha (Homo sapiens) (UniProt P16234); assay: Inhibition of human PDGFR alpha catalytic domain expressed in baculovirus assessed as substrate phosphorylation using fluorescence-labelled peptides as substrate at 70 uM after 90 mins by microfluidic peptide phosphorylation assay
[3] = molecular target: Ribosomal protein S6 kinase alpha-5 (Homo sapiens) (UniProt O75582); assay: Inhibition of human full length MSK1 expressed in baculovirus assessed as substrate phosphorylation using fluorescence-labelled peptides as substrate at 0.2 uM after 90 mins by microfluidic peptide phosphorylation assay
[4] = molecular target: RAC-alpha serine/threonine-protein kinase (Homo sapiens) (UniProt P31749); assay: Inhibition of human AKT1 catalytic domain expressed in baculovirus assessed as substrate phosphorylation using fluorescence-labelled peptides as substrate at 420 uM after 90 mins by microfluidic peptide phosphorylation assay
[5] = molecular target: Proto-oncogene tyrosine-protein kinase Src (Homo sapiens) (UniProt P12931); assay: Inhibition of human full length SRC expressed in baculovirus assessed as substrate phosphorylation using fluorescence-labelled peptides as substrate at 420 uM after 90 mins by microfluidic peptide phosphorylation assay
[6] = molecular target: MAP kinase-activated protein kinase 3 (Homo sapiens) (UniProt Q16644); assay: Inhibition of human full length MAPKAPK3 expressed in Escherichia coli cell assessed as substrate phosphorylation using fluorescence-labelled peptides as substrate at 420 uM after 90 mins by microfluidic peptide phosphorylation assay
[7] = molecular target: Protein kinase C eta type (Homo sapiens) (UniProt P24723); assay: Inhibition of human truncated PKC eta expressed in baculovirus assessed as substrate phosphorylation using fluorescence-labelled peptides as substrate at 420 uM after 90 mins by microfluidic peptide phosphorylation assay
[8] = molecular target: T1, Serine/threonine-protein kinase Nek2 (Homo sapiens) (UniProt P51955); assay: Inhibition of human full length NEK2 expressed in baculovirus assessed as substrate phosphorylation using fluorescence-labelled peptides as substrate at 95 uM after 90 mins by microfluidic peptide phosphorylation assay
T1 sequence (whole entry): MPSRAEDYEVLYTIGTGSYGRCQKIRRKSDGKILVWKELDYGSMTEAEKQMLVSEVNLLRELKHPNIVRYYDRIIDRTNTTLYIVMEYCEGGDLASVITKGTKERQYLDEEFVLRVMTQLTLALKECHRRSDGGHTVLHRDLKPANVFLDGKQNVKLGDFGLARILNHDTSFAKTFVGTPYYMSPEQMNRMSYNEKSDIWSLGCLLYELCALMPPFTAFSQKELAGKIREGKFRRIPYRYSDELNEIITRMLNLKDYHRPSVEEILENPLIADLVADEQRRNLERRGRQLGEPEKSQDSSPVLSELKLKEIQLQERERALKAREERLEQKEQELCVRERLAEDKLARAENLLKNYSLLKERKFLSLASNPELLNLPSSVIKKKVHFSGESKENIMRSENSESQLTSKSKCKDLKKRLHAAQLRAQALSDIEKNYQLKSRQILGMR

[9] = molecular target: Fibroblast growth factor receptor 2 (Homo sapiens) (UniProt P21802); assay: Inhibition of human FGFR2 catalytic domain expressed in baculovirus assessed as substrate phosphorylation using fluorescence-labelled peptides as substrate at 9 uM after 90 mins by microfluidic peptide phosphorylation assay
[10] = molecular target: Hepatocyte growth factor receptor (Homo sapiens) (UniProt P08581); assay: Inhibition of human MET cytoplasmic domain expressed in baculovirus assessed as substrate phosphorylation using fluorescence-labelled peptides as substrate at 9 uM after 90 mins by microfluidic peptide phosphorylation assay
[11] = molecular target: T2, Serine/threonine-protein kinase BRSK1 (Homo sapiens) (UniProt Q8TDC3); conditions: 1000 uM
T2 sequence (whole entry): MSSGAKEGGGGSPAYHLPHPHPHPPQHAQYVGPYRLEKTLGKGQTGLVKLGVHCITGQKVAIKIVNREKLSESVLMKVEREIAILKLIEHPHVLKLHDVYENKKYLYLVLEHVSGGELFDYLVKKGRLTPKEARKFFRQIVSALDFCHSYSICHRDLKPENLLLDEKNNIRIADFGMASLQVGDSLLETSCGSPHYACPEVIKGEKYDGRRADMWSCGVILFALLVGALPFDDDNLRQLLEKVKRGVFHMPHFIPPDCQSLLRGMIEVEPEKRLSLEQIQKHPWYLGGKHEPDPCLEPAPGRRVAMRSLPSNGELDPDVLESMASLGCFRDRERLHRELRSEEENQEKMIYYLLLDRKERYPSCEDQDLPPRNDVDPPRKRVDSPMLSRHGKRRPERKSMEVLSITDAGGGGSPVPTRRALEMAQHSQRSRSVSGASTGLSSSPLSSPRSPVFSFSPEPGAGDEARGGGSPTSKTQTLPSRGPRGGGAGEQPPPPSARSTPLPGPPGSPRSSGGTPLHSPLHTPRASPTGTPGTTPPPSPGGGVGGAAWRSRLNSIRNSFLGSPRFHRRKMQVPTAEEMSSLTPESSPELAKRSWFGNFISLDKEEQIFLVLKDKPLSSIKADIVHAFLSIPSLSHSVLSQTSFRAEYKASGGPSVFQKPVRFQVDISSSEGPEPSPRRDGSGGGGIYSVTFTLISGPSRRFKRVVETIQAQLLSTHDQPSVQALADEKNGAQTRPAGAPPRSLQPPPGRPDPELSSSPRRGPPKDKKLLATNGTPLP
Description: Inhibition of human full length BRSK1 expressed in baculovirus assessed as substrate phosphorylation using fluorescence-labelled peptides as substrate at 1000 uM after 90 mins by microfluidic peptide phosphorylation assay

[12] = molecular target: Ribosomal protein S6 kinase alpha-2 (Homo sapiens) (UniProt Q15349); assay: Inhibition of human full length RSK3 expressed in baculovirus assessed as substrate phosphorylation using fluorescence-labelled peptides as substrate at […] after 90 mins by microfluidic peptide phosphorylation assay
[13] = molecular target: T3, MAP kinase-activated protein kinase 5 (Homo sapiens) (UniProt Q8IW41); assay: Inhibition of human full length PRAK expressed in baculovirus assessed as substrate phosphorylation using fluorescence-labelled peptides as substrate at 8 uM after 90 mins by microfluidic peptide phosphorylation assay
T3 sequence (whole entry): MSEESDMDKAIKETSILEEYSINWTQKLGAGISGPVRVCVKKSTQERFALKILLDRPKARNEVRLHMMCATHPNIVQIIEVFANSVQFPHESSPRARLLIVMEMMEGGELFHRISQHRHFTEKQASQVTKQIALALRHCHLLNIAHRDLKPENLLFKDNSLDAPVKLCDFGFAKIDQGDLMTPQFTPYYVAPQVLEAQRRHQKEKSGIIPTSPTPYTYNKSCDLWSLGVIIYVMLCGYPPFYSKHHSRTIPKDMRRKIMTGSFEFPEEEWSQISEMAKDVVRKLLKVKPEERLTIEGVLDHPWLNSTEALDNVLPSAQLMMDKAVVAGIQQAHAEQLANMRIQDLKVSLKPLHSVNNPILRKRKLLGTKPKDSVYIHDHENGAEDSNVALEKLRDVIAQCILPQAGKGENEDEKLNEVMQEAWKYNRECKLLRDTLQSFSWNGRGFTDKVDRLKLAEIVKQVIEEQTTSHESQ

Proto-oncogene tyrosine-protein kinase Src (Homo sapiens), sequence (P12931 2-536 limits assumed): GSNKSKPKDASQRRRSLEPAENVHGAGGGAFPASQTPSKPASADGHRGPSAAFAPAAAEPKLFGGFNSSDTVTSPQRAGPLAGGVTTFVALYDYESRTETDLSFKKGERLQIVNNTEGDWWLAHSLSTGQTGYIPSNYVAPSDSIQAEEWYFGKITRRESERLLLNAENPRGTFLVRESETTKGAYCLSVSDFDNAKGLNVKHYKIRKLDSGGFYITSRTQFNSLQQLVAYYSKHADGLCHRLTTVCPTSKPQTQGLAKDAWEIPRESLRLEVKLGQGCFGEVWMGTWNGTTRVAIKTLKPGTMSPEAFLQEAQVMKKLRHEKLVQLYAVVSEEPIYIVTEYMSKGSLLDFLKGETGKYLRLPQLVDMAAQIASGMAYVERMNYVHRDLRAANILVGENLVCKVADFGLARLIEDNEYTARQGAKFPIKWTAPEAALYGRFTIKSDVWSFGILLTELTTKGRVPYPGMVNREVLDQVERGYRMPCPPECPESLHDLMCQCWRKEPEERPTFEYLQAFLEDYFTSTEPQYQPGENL
Fibroblast growth factor receptor 1 (Homo sapiens), sequence (P11362 22-822 limits assumed): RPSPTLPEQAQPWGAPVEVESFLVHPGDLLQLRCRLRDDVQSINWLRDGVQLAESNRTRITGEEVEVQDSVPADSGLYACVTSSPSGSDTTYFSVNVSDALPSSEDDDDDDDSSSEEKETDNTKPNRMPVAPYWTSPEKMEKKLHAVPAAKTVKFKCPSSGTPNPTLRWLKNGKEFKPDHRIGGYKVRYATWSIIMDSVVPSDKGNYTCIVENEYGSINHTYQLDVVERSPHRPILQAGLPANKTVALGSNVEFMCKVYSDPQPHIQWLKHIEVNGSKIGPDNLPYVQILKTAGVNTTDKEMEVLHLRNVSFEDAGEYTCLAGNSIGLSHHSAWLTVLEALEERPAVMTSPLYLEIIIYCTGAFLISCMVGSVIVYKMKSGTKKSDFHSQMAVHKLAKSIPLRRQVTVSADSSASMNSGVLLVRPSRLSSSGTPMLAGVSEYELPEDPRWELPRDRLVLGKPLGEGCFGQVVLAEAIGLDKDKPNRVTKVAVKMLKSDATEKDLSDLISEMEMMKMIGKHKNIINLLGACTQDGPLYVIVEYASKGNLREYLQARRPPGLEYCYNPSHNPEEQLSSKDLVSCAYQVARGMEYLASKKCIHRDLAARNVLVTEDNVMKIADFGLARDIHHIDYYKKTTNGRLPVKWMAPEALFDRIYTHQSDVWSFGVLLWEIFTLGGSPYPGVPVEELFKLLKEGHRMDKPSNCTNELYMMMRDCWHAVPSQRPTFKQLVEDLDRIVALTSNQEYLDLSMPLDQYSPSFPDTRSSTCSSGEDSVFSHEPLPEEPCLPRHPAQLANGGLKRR
Ribosomal protein S6 kinase alpha-2 (Homo sapiens), sequence (Q15349 whole entry): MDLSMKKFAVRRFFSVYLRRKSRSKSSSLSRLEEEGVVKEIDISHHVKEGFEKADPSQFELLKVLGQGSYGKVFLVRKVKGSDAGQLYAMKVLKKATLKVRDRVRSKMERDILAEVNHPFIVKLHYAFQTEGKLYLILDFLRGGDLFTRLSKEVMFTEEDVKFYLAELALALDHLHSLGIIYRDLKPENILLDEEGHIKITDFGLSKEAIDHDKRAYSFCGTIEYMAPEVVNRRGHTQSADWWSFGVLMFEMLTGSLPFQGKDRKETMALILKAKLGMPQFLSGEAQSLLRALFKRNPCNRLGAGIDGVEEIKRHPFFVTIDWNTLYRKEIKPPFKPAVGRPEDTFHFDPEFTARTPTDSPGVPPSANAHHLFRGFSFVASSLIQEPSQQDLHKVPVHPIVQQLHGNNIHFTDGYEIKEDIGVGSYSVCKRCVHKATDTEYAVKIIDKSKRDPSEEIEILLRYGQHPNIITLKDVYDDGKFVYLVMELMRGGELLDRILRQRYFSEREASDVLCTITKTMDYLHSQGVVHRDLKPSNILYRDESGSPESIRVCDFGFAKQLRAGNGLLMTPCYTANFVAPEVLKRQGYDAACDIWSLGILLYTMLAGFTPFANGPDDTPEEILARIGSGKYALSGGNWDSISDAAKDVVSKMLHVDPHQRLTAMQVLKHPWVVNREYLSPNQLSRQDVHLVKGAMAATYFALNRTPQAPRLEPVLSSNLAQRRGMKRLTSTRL
Ribosomal protein S6 kinase alpha-5 (Homo sapiens), sequence (O75582 whole entry, looked up, the tested form may be a part): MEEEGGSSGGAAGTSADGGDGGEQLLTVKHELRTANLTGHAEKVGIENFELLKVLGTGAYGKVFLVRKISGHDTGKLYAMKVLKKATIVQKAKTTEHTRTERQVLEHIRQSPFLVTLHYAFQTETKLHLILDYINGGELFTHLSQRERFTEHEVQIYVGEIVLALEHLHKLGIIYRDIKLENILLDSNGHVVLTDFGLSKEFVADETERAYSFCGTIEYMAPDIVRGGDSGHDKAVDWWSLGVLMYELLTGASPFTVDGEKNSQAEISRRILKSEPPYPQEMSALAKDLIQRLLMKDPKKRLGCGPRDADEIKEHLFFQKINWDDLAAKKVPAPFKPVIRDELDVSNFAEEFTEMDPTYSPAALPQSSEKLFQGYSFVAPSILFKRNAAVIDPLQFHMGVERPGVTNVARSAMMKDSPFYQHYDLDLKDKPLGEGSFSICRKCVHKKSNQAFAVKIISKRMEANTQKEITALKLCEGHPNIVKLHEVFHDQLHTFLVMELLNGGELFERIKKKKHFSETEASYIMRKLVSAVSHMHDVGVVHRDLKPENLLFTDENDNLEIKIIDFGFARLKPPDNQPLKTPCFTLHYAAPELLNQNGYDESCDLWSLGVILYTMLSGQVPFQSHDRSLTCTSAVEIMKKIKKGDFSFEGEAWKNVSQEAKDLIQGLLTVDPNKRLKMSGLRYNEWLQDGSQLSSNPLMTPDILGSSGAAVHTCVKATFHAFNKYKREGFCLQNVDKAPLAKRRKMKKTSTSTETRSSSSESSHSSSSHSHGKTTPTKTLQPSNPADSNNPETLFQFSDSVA
RAC-alpha serine/threonine-protein kinase (Homo sapiens), sequence (P31749 whole entry, the tested form may be a part): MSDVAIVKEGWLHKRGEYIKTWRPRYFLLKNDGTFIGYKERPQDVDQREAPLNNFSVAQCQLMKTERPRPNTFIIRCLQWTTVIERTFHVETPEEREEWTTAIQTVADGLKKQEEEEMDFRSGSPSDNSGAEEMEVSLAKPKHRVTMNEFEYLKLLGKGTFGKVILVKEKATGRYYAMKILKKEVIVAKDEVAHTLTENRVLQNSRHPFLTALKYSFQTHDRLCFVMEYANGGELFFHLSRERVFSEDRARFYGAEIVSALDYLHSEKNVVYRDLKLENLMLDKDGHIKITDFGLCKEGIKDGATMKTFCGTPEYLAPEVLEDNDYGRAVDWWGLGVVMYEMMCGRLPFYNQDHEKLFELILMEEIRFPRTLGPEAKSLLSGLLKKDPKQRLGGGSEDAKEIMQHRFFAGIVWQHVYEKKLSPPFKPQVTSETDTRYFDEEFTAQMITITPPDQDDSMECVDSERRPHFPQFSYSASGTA
Fibroblast growth factor receptor 2 (Homo sapiens), sequence (P21802 22-821 limits assumed): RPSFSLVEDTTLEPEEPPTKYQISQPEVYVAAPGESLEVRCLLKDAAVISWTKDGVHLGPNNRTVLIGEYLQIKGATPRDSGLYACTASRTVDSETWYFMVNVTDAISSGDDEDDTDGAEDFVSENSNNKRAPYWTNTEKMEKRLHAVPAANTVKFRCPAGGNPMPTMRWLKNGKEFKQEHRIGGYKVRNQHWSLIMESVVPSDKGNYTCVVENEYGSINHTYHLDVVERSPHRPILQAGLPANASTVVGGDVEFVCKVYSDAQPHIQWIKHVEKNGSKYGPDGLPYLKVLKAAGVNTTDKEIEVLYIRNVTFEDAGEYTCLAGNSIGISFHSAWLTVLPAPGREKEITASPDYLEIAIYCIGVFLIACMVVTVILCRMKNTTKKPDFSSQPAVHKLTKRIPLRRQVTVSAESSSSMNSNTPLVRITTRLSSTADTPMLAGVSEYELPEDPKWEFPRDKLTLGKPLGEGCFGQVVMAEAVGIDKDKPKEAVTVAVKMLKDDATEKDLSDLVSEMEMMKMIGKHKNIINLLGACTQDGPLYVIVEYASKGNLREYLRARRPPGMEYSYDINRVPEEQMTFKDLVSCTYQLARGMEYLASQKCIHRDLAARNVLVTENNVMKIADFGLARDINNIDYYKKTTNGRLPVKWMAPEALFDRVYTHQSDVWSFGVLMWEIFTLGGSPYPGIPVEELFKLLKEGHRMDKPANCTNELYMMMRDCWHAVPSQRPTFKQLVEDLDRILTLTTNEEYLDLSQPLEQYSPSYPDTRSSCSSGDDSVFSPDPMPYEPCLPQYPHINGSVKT
MAP kinase-activated protein kinase 3 (Homo sapiens), sequence (Q16644 whole entry, looked up, the tested form may be a part): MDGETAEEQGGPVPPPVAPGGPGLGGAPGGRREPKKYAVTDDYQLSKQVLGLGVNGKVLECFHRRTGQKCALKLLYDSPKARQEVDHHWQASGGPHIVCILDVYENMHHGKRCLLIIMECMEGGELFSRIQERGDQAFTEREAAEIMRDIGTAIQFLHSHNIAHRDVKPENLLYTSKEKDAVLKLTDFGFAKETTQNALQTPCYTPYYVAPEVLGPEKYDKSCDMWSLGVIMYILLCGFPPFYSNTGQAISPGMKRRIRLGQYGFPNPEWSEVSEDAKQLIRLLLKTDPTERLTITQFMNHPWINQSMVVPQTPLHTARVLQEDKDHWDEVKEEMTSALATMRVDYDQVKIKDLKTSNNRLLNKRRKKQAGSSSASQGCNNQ

NC1(Cc2ccc(Cl)cc2)CCN(c2ncnc3[nH]ccc23)CC1
inhibition [1]: 0%

CNCc1ccc(-c2ncnc3[nH]cnc23)cc1
inhibition [2]: 16.5%

Clc1ccc(C2(c3ccc(-c4ncnc5[nH]cnc45)cc3)CCNCC2)cc1
inhibition [3]: 90%

c1nc(N2CCOCC2)c2nc[nH]c2n1
inhibition [4]: 61.5% | inhibition [5]: 62.5% | inhibition [6]: 96.5% | inhibition [7]: 82%

NCCc1ccc(-c2ncnc3[nH]cnc23)cc1
inhibition [8]: 0%

NCC1CN(c2ncnc3[nH]c4cnccc4c23)CCO1 (stereo not drawn)
inhibition [9]: 30% | inhibition [10]: 0%

c1cnc2[nH]ccc2c1
inhibition [11]: 22%

COC(=O)c1cnc(Nc2cnc(C#N)cn2)cc1NCC1CCNCC1
inhibition [12]: 44%

NCC1CCN(c2ncnc3[nH]ccc23)CC1
inhibition [13]: 51.5%
